Target: T1, human S1P1 receptor (Homo sapiens, UniProt P21453)
T1 construct: expressed in transfected cells; membranes used
Experiment: GTP γ35S binding assay for S1P1 activity
Assay type: biochemical
Settings: membranes of cells stably expressing S1P1; test compounds 0.08 to 5,000 nM; 30 min at 25° C.; read-out: S1P1 EC50 (Activity potency: S1P1 receptor from GTP γ35S)
Procedure: Compounds were tested for S1P1 activity using the GTP γ^35S binding assay. These compounds may be assessed for their ability to activate or block activation of the human S1P1 receptor in cells stably expressing the S1P1 receptor. GTP γ^35S binding was measured in the medium containing (mM) HEPES 25, pH 7.4, MgCl2 10, NaCl 100, dithitothreitol 0.5, digitonin 0.003%, 0.2 nM GTP γ^35S, and 5 μg membrane protein in a volume of 150 μl. Test compounds were included in the concentration range from 0.08 to 5,000 nM unless indicated otherwise. Membranes were incubated with 100 μM 5′-adenylylimmidodiphosphate for 30 min, and subsequently with 10 μM GDP for 10 min on ice. Drug solutions and membrane were mixed, and then reactions were initiated by adding GTP γ^35S and continued for 30 min at 25° C. Reaction mixtures were filtered over Whatman GF/B filters under vacuum, and washed three times with 3 mL of ice-cold buffer (HEPES 25, pH7.4, MgCl2 10 and NaCl 100). Filters were dried and mixed with scintillant, and counted for ^35S activity using a β-counter. Agonist-induced GTP γ^35S binding was obtained by subtracting that in the absence of agonist. Binding data were analyzed using a non-linear regression method. In case of antagonist assay, the reaction mixture contained 10 nM S1P in the presence of test antagonist at concentrations ranging from 0.08 to 5000 nM.

T1 sequence (P21453 whole entry): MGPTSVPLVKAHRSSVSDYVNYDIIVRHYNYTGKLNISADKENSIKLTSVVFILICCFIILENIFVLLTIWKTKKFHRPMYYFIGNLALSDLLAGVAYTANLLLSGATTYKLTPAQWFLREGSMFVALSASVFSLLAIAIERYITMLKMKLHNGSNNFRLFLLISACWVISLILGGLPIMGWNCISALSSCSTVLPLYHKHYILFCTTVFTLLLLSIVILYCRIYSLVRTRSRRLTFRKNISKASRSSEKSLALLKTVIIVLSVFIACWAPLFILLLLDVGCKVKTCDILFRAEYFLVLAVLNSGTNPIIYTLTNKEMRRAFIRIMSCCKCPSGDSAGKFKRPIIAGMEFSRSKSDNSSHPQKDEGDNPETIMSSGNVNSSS

## CCN1N=C(c2nc(-c3ccc(CNCCC(=O)O)cc3)no2)CC1c1ccccc1 (centres unmarked) [Compound 5, 3-({4-[5-(1-ethyl-5-phenyl-4,5-dihydro-1H-pyrazol-3-yl)-1,2,4-oxadiazol-3-yl]benzyl}amino)propanoic acid]
  EC50: 274 nM

## CCN1N=C(c2nc(-c3cc(F)c(CNCCCP(=O)(O)O)c(F)c3)no2)CC1c1ccccc1 (centres unmarked) [Compound 6, [3-({4-[5-(1-ethyl-5-phenyl-4,5-dihydro-1H-pyrazol-3-yl)-1,2,4-oxadiazol-3-yl]-2,6-difluorobenzyl}amino)propyl]phosphonic acid]
  EC50: 5.4 nM

## CCN1N=C(c2nc(-c3ccc(CNCCCP(=O)(O)O)cc3)no2)CC1c1ccccc1 (centres unmarked) [Compound 4, [3-({4-[5-(1-ethyl-5-phenyl-4,5-dihydro-1H-pyrazol-3-yl)-1,2,4-oxadiazol-3-yl]benzyl}amino)propyl]phosphonic acid]
  EC50: 25 nM

## CN1N=C(c2nc(-c3ccc(CNCCCP(=O)(O)O)cc3)no2)CC1c1ccccc1 (centres unmarked) [Compound 2, [3-({4-[5-(1-methyl-5-phenyl-4,5-dihydro-1H-pyrazol-3-yl)-1,2,4-oxadiazol-3-yl]benzyl}amino)propyl]phosphonic acid]
  EC50: 6.5 nM

## CCCN1N=C(c2nc(-c3ccc(CNCCCP(=O)(O)O)cc3)no2)CC1c1ccccc1 (centres unmarked) [Compound 1, [3-({4-[5-(5-phenyl-1-propyl-4,5-dihydro-1H-pyrazol-3-yl)-1,2,4-oxadiazol-3-yl]benzyl}amino)propyl]phosphonic acid]
  EC50: 18 nM

## CCN1N=C(c2nc(-c3ccc(CNCCC(=O)O)cc3F)no2)CC1c1ccccc1 (centres unmarked) [Compound 9, 3-({4-[5-(1-ethyl-5-phenyl-4,5-dihydro-1H-pyrazol-3-yl)-1,2,4-oxadiazol-3-yl]-3-fluorobenzyl}amino)propanoic acid]
  EC50: 49 nM

## CCCN1N=C(c2nc(-c3ccc(CNCCC(=O)O)cc3)no2)CC1c1ccccc1 (centres unmarked) [Compound 12, 3-({4-[5-(5-phenyl-1-propyl-4,5-dihydro-1H-pyrazol-3-yl)-1,2,4-oxadiazol-3-yl]benzyl}amino)propanoic acid]
  EC50: 65 nM

## CCc1cc(-c2noc(C3=NN(CC)C(c4ccccc4)C3)n2)ccc1CNCCC(=O)O (centres unmarked) [Compound 11, 3-({2-ethyl-4-[5-(1-ethyl-5-phenyl-4,5-dihydro-1H-pyrazol-3-yl)-1,2,4-oxadiazol-3-yl]benzyl}amino)propanoic acid]
  EC50: 21 nM

## CCc1cc(-c2noc(C3=NN(CC)C(c4ccccc4)C3)n2)ccc1CNCCCP(=O)(O)O (centres unmarked) [Compound 10, [3-({2-ethyl-4-[5-(1-ethyl-5-phenyl-4,5-dihydro-1H-pyrazol-3-yl)-1,2,4-oxadiazol-3-yl]benzyl}amino)propyl]phosphonic acid]
  EC50: 2.6 nM

## CCN1N=C(c2nc(-c3cc(F)c(CNCCC(=O)O)c(F)c3)no2)CC1c1ccccc1 (centres unmarked) [Compound 7, 3-({4-[5-(1-ethyl-5-phenyl-4,5-dihydro-1H-pyrazol-3-yl)-1,2,4-oxadiazol-3-yl]-2,6-difluorobenzyl}amino)propanoic acid]
  EC50: 42 nM

## CCN1N=C(c2nc(-c3ccc(CNCCCP(=O)(O)O)cc3F)no2)CC1c1ccccc1 (centres unmarked) [Compound 8, [3-({4-[5-(1-ethyl-5-phenyl-4,5-dihydro-1H-pyrazol-3-yl)-1,2,4-oxadiazol-3-yl]-3-fluorobenzyl}amino)propyl]phosphonic acid]
  EC50: 11 nM

— patent publication US20140235587A1, “SUBSTITUTED PYRAZOLES AS SPHINGOSINE RECEPTOR MODULATORS” (Allergan, Inc., priority 2013, published 2014)
